Experimental data from ChEMBL document CHEMBL3137667, “[Drug-induced liver injury; fourteenth updated edition of the bibliographic database of liver injuries and related drugs]” (Gastroenterol Clin Biol, 2004).

What was measured:
[1] = Highest frequency of moderate liver toxicity observed during clinical trials, expressed as a percentage. [column '% BIOL' in source]; conditions: human
[2] = human
[3] = human; remark: listed apart in the source
[4] = human; remark: listed apart in the source
[5] = human, serum
[6] = human, serum; remark: listed apart in the source
[7] = human; remark: listed apart in the source
[8] = Highest frequency of acute liver toxicity observed during clinical trials, expressed as a percentage. [column '% AIGUE' in source]; conditions: human
[9] = human; remark: listed apart in the source
[10] = human, serum, 4383 h
[11] = human; remark: listed apart in the source
[12] = human; remark: listed apart in the source
[13] = human; remark: listed apart in the source
[14] = human; remark: listed apart in the source
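Wherever Hepatotoxicity (association with vascular disease) is given: count of indexed literature references reporting vascular liver injury in humans, e.g. peliosis hepatitis, hepatic veno-occlusive disease or Budd-Chiari syndrome.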
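Wherever Hepatotoxicity (benign tumour) is given: value is a count of indexed literature references citing a benign tumour confirmed by histopathology.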
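Wherever Hepatotoxicity (choleostasis) is given: human cholestatic liver injury, shown by histopathology or by peak ALT or AST elevation over alkaline phosphatase ratio below 2, value counts indexed literature reports.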
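Wherever Hepatotoxicity (chronic liver disease) is given: chronic liver injury confirmed by histopathology or persistently raised serum aminotransferase activity beyond 6 months, value given as the count of indexed literature references.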
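Wherever Hepatotoxicity (cirrhosis) is given: value is a count of indexed literature references reporting cirrhosis confirmed by histopathology.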
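Wherever Hepatotoxicity (cytolytic) is given: human cytolytic liver injury, shown by histopathology or by a ratio above 5 of peak ALT or AST elevation to alkaline phosphatase elevation, value counts indexed references.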
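Wherever Hepatotoxicity (granulomatous hepatitis) is given: value is a count of indexed literature references reporting granulomatous liver disease confirmed by histopathology.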
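Wherever Hepatotoxicity (malignant tumour) is given: malignant tumour confirmed by histopathology, value gives the count of indexed literature references reporting it.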
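Wherever Hepatotoxicity (severe hepatitis) is given: human clinical data: severe hepatitis, meaning potentially life-threatening liver failure or clinically observed cases, the value counts how many indexed literature references report it.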
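Wherever Hepatotoxicity (steatosis) is given: steatosis confirmed by histopathology, value is the count of indexed references.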

## CHOLESTYRAMINE
[1]
  Hepatotoxicity (moderate): 30%
[2]
  Hepatotoxicity (steatosis): 0
[3]
  Hepatotoxicity (cirrhosis): 0
[4]
  Hepatotoxicity (benign tumour): 0
[5]
  Hepatotoxicity (moderate): 11
[6]
  Hepatotoxicity (acute): 0
[7]
  Hepatotoxicity (severe hepatitis): 0
[8]
  Hepatotoxicity (acute): 0%
[9]
  Hepatotoxicity (choleostasis): 0
[10]
  Hepatotoxicity (chronic liver disease): 0
[11]
  Hepatotoxicity (association with vascular disease): 0
[12]
  Hepatotoxicity (granulomatous hepatitis): 0
[13]
  Hepatotoxicity (cytolytic): 0
[14]
  Hepatotoxicity (malignant tumour): 0

## Nc1nc(/C(=C/CC(=O)O)C(=O)N[C@@H]2C(=O)N3C(C(=O)O)=CCS[C@H]23)cs1 [CEFTIBUTEN]
[1]
  Hepatotoxicity (moderate): 14.3%
[2]
  Hepatotoxicity (steatosis): 0
[3]
  Hepatotoxicity (cirrhosis): 0
[4]
  Hepatotoxicity (benign tumour): 0
[5]
  Hepatotoxicity (moderate): 15
[6]
  Hepatotoxicity (acute): 0
[7]
  Hepatotoxicity (severe hepatitis): 0
[8]
  Hepatotoxicity (acute): 0%
[9]
  Hepatotoxicity (choleostasis): 0
[10]
  Hepatotoxicity (chronic liver disease): 0
[11]
  Hepatotoxicity (association with vascular disease): 0
[12]
  Hepatotoxicity (granulomatous hepatitis): 0
[13]
  Hepatotoxicity (cytolytic): 0
[14]
  Hepatotoxicity (malignant tumour): 0

## NCC[C@H](O)C(=O)N[C@@H]1C[C@H](N)[C@@H](O[C@H]2O[C@H](CN)CC[C@H]2N)[C@H](O)[C@H]1O[C@H]1O[C@H](CO)[C@@H](O)[C@H](N)[C@H]1O [ARBEKACIN]
[1]
  Hepatotoxicity (moderate): 27.3%
[2]
  Hepatotoxicity (steatosis): 0
[3]
  Hepatotoxicity (cirrhosis): 0
[4]
  Hepatotoxicity (benign tumour): 0
[5]
  Hepatotoxicity (moderate): 30
[6]
  Hepatotoxicity (acute): 0
[7]
  Hepatotoxicity (severe hepatitis): 0
[8]
  Hepatotoxicity (acute): 0%
[9]
  Hepatotoxicity (choleostasis): 0
[10]
  Hepatotoxicity (chronic liver disease): 0
[11]
  Hepatotoxicity (association with vascular disease): 0
[12]
  Hepatotoxicity (granulomatous hepatitis): 0
[13]
  Hepatotoxicity (cytolytic): 0
[14]
  Hepatotoxicity (malignant tumour): 0

## CCOC(=O)[C@H](CCc1ccccc1)N[C@@H](C)C(=O)N(CC(=O)O)C1Cc2ccccc2C1
[1]
  Hepatotoxicity (moderate): 1.1%
[2]
  Hepatotoxicity (steatosis): 0
[3]
  Hepatotoxicity (cirrhosis): 0
[4]
  Hepatotoxicity (benign tumour): 0
[5]
  Hepatotoxicity (moderate): 1
[6]
  Hepatotoxicity (acute): 0
[7]
  Hepatotoxicity (severe hepatitis): 0
[8]
  Hepatotoxicity (acute): 0%
[9]
  Hepatotoxicity (choleostasis): 0
[10]
  Hepatotoxicity (chronic liver disease): 0
[11]
  Hepatotoxicity (association with vascular disease): 0
[12]
  Hepatotoxicity (granulomatous hepatitis): 0
[13]
  Hepatotoxicity (cytolytic): 0
[14]
  Hepatotoxicity (malignant tumour): 0

## Cc1c(F)c(N2CCNC(C)C2)cc2c1c(=O)c(C(=O)O)cn2C1CC1 (centres undefined) [GREPAFLOXACIN]
[1]; Liver
  Hepatotoxicity (moderate): 14.3%
[2]
  Hepatotoxicity (steatosis): 0
[3]
  Hepatotoxicity (cirrhosis): 0
[4]
  Hepatotoxicity (benign tumour): 0
[5]
  Hepatotoxicity (moderate): 22
[6]
  Hepatotoxicity (acute): 0
[7]; Liver
  Hepatotoxicity (severe hepatitis): 0
[8]; Liver
  Hepatotoxicity (acute): 0%
[9]; Liver
  Hepatotoxicity (choleostasis): 0
[10]
  Hepatotoxicity (chronic liver disease): 0
[11]
  Hepatotoxicity (association with vascular disease): 0
[12]; Liver
  Hepatotoxicity (granulomatous hepatitis): 0
[13]; Liver
  Hepatotoxicity (cytolytic): 0
[14]
  Hepatotoxicity (malignant tumour): 0

## CCOC(=O)[C@H](CCc1ccccc1)N[C@@H](C)C(=O)N1Cc2ccccc2C[C@H]1C(=O)O
[1]
  Hepatotoxicity (moderate): 10%
[2]
  Hepatotoxicity (steatosis): 0
[3]
  Hepatotoxicity (cirrhosis): 0
[4]
  Hepatotoxicity (benign tumour): 0
[5]
  Hepatotoxicity (moderate): 3
[6]
  Hepatotoxicity (acute): 1
[7]
  Hepatotoxicity (severe hepatitis): 0
[8]
  Hepatotoxicity (acute): 0%
[9]
  Hepatotoxicity (choleostasis): 0
[10]
  Hepatotoxicity (chronic liver disease): 0
[11]
  Hepatotoxicity (association with vascular disease): 0
[12]
  Hepatotoxicity (granulomatous hepatitis): 0
[13]
  Hepatotoxicity (cytolytic): 0
[14]
  Hepatotoxicity (malignant tumour): 0

## GALLIUM
[1]
  Hepatotoxicity (moderate): 28.6%
[2]
  Hepatotoxicity (steatosis): 0
[3]
  Hepatotoxicity (cirrhosis): 0
[4]
  Hepatotoxicity (benign tumour): 0
[5]
  Hepatotoxicity (moderate): 1
[6]
  Hepatotoxicity (acute): 1
[7]
  Hepatotoxicity (severe hepatitis): 0
[8]
  Hepatotoxicity (acute): 21.4%
[9]
  Hepatotoxicity (choleostasis): 1
[10]
  Hepatotoxicity (chronic liver disease): 0
[11]
  Hepatotoxicity (association with vascular disease): 0
[12]
  Hepatotoxicity (granulomatous hepatitis): 0
[13]
  Hepatotoxicity (cytolytic): 0
[14]
  Hepatotoxicity (malignant tumour): 0

## CCCc1c2oc(C(=O)O)cc(=O)c2cc2c(=O)cc(C(=O)O)n(CC)c12 [NEDOCROMIL]
[1]
  Hepatotoxicity (moderate): 3.3%
[2]
  Hepatotoxicity (steatosis): 0
[3]
  Hepatotoxicity (cirrhosis): 0
[4]
  Hepatotoxicity (benign tumour): 0
[5]
  Hepatotoxicity (moderate): 2
[6]
  Hepatotoxicity (acute): 0
[7]
  Hepatotoxicity (severe hepatitis): 0
[8]
  Hepatotoxicity (acute): 0%
[9]
  Hepatotoxicity (choleostasis): 0
[10]
  Hepatotoxicity (chronic liver disease): 0
[11]
  Hepatotoxicity (association with vascular disease): 0
[12]
  Hepatotoxicity (granulomatous hepatitis): 0
[13]
  Hepatotoxicity (cytolytic): 0
[14]
  Hepatotoxicity (malignant tumour): 0

## NS(=O)(=O)c1cc2c(cc1Cl)NC(CC1CCCC1)NS2(=O)=O (centres undefined) [CYCLOPENTHIAZIDE]
[1]
  Hepatotoxicity (moderate): 0%
[2]
  Hepatotoxicity (steatosis): 0
[3]
  Hepatotoxicity (cirrhosis): 0
[4]
  Hepatotoxicity (benign tumour): 0
[5]
  Hepatotoxicity (moderate): 1
[6]
  Hepatotoxicity (acute): 1
[7]
  Hepatotoxicity (severe hepatitis): 0
[8]
  Hepatotoxicity (acute): 0%
[9]
  Hepatotoxicity (choleostasis): 0
[10]
  Hepatotoxicity (chronic liver disease): 0
[11]
  Hepatotoxicity (association with vascular disease): 0
[12]
  Hepatotoxicity (granulomatous hepatitis): 0
[13]
  Hepatotoxicity (cytolytic): 0
[14]
  Hepatotoxicity (malignant tumour): 0

## COc1ccc(/C=C/C(=O)Nc2ccccc2C(=O)O)cc1OC
[1]
  Hepatotoxicity (moderate): 7.5%
[2]
  Hepatotoxicity (steatosis): 0
[3]
  Hepatotoxicity (cirrhosis): 0
[4]
  Hepatotoxicity (benign tumour): 0
[5]
  Hepatotoxicity (moderate): 6
[6]
  Hepatotoxicity (acute): 1
[7]
  Hepatotoxicity (severe hepatitis): 0
[8]
  Hepatotoxicity (acute): 0%
[9]
  Hepatotoxicity (choleostasis): 0
[10]
  Hepatotoxicity (chronic liver disease): 0
[11]
  Hepatotoxicity (association with vascular disease): 0
[12]
  Hepatotoxicity (granulomatous hepatitis): 0
[13]
  Hepatotoxicity (cytolytic): 0
[14]
  Hepatotoxicity (malignant tumour): 0

## CO[C@@]1(NC(=O)C(C(=O)[O-])c2ccc(O)cc2)C(=O)N2C(C(=O)[O-])=C(CSc3nnnn3C)CO[C@@H]21.[Na+].[Na+] (some centres undefined) [MOXALACTAM DISODIUM]
[1]
  Hepatotoxicity (moderate): 36.5%
[2]
  Hepatotoxicity (steatosis): 0
[3]
  Hepatotoxicity (cirrhosis): 0
[4]
  Hepatotoxicity (benign tumour): 0
[5]
  Hepatotoxicity (moderate): 13
[6]
  Hepatotoxicity (acute): 1
[7]
  Hepatotoxicity (severe hepatitis): 0
[8]
  Hepatotoxicity (acute): 3.3%
[9]
  Hepatotoxicity (choleostasis): 1
[10]
  Hepatotoxicity (chronic liver disease): 0
[11]
  Hepatotoxicity (association with vascular disease): 0
[12]
  Hepatotoxicity (granulomatous hepatitis): 0
[13]
  Hepatotoxicity (cytolytic): 0
[14]
  Hepatotoxicity (malignant tumour): 0

## CN(C)CCCN1c2ccccc2C(C)(C)c2ccccc21 [DIMETACRINE]
[1]
  Hepatotoxicity (moderate): 0%
[2]
  Hepatotoxicity (steatosis): 0
[3]
  Hepatotoxicity (cirrhosis): 0
[4]
  Hepatotoxicity (benign tumour): 0
[5]
  Hepatotoxicity (moderate): 1
[6]
  Hepatotoxicity (acute): 0
[7]
  Hepatotoxicity (severe hepatitis): 0
[8]
  Hepatotoxicity (acute): 0%
[9]
  Hepatotoxicity (choleostasis): 0
[10]
  Hepatotoxicity (chronic liver disease): 0
[11]
  Hepatotoxicity (association with vascular disease): 0
[12]
  Hepatotoxicity (granulomatous hepatitis): 0
[13]
  Hepatotoxicity (cytolytic): 0
[14]
  Hepatotoxicity (malignant tumour): 0

## COCCCN1CCC(NC(=O)c2cc(Cl)c(N)c3c2OCC3)CC1 [PRUCALOPRIDE]
[1]
  Hepatotoxicity (moderate): 5.9%
[2]
  Hepatotoxicity (steatosis): 0
[3]
  Hepatotoxicity (cirrhosis): 0
[4]
  Hepatotoxicity (benign tumour): 0
[5]
  Hepatotoxicity (moderate): 1
[6]
  Hepatotoxicity (acute): 0
[7]
  Hepatotoxicity (severe hepatitis): 0
[8]
  Hepatotoxicity (acute): 0%
[9]
  Hepatotoxicity (choleostasis): 0
[10]
  Hepatotoxicity (chronic liver disease): 0
[11]
  Hepatotoxicity (association with vascular disease): 0
[12]
  Hepatotoxicity (granulomatous hepatitis): 0
[13]
  Hepatotoxicity (cytolytic): 0
[14]
  Hepatotoxicity (malignant tumour): 0

## CO/N=C(\C(=O)N[C@@H]1C(=O)N2C(C(=O)O)=C(C)CS[C@H]12)c1csc(N)n1
[1]
  Hepatotoxicity (moderate): 23.1%
[2]
  Hepatotoxicity (steatosis): 0
[3]
  Hepatotoxicity (cirrhosis): 0
[4]
  Hepatotoxicity (benign tumour): 0
[5]
  Hepatotoxicity (moderate): 30
[6]
  Hepatotoxicity (acute): 0
[7]
  Hepatotoxicity (severe hepatitis): 0
[8]
  Hepatotoxicity (acute): 0%
[9]
  Hepatotoxicity (choleostasis): 0
[10]
  Hepatotoxicity (chronic liver disease): 0
[11]
  Hepatotoxicity (association with vascular disease): 0
[12]
  Hepatotoxicity (granulomatous hepatitis): 0
[13]
  Hepatotoxicity (cytolytic): 0
[14]
  Hepatotoxicity (malignant tumour): 0

## Nc1ncc2ncn(COCCO)c2n1 [DESCICLOVIR]
[1]
  Hepatotoxicity (moderate): 15.4%
[2]
  Hepatotoxicity (steatosis): 0
[3]
  Hepatotoxicity (cirrhosis): 0
[4]
  Hepatotoxicity (benign tumour): 0
[5]
  Hepatotoxicity (moderate): 1
[6]
  Hepatotoxicity (acute): 0
[7]
  Hepatotoxicity (severe hepatitis): 0
[8]
  Hepatotoxicity (acute): 0%
[9]
  Hepatotoxicity (choleostasis): 0
[10]
  Hepatotoxicity (chronic liver disease): 0
[11]
  Hepatotoxicity (association with vascular disease): 0
[12]
  Hepatotoxicity (granulomatous hepatitis): 0
[13]
  Hepatotoxicity (cytolytic): 0
[14]
  Hepatotoxicity (malignant tumour): 0

## CNn1cc(C(=O)O)c(=O)c2cc(F)c(N3CCN(C)CC3)cc21 [AMIFLOXACIN]
[1]; Liver
  Hepatotoxicity (moderate): 5%
[2]
  Hepatotoxicity (steatosis): 0
[3]
  Hepatotoxicity (cirrhosis): 0
[4]
  Hepatotoxicity (benign tumour): 0
[5]
  Hepatotoxicity (moderate): 1
[6]
  Hepatotoxicity (acute): 1
[7]; Liver
  Hepatotoxicity (severe hepatitis): 0
[8]; Liver
  Hepatotoxicity (acute): 1.7%
[9]
  Hepatotoxicity (choleostasis): 0
[10]
  Hepatotoxicity (chronic liver disease): 0
[11]
  Hepatotoxicity (association with vascular disease): 0
[12]
  Hepatotoxicity (granulomatous hepatitis): 0
[13]
  Hepatotoxicity (cytolytic): 1
[14]
  Hepatotoxicity (malignant tumour): 0
